From publication PMC7699649 (Communications Biology, 2020) come the findings set out here.

Where “and” joins values, the source holds several entries; their conditions need not be identical. Equal entries are not always repeated. Non-standard residues stand in square brackets, D forms with d. Residues, ends and D or L forms follow the SMILES beside them.

In data set [1] the test system is human red blood cells. The data set can be described thus: Haemolysis assay. It is filed as cell-based. The settings on record: human red blood cells in PBS, 1 h 37 °C, OD550, relative to 0.1% Triton-X-100.
Description: Haemolysis was tested by incubating titrations of AMPs in PBS with freshly collected human red blood cells for 1 h at 37 °C. Control wells were treated with 0.1% Triton-X-100 to ensure complete lysis, or PBS-only to represent no lysis. Samples were spun down to remove non-lysed cells and the OD550 of the supernatant was measured using a Clariostar plate reader. The percentage of haemolysis was calculated as % haemolysis = (AP − AB)/(AC − AB) × 100, where AP is the absorbance value for a known peptide concentration, AC is the absorbance of the 0.1% Triton-X-100 control, AB is the absorbance of the PBS control. Data presented are averages and standard error from three biological replicate experiments.
The nature of data set [2]: Murine EMRSA-15 lung infection model: body weight. The class given is in vivo, C57Bl6J mice.
The test system of data set [3] is MCP-1. The data set can be described thus: Murine EMRSA-15 lung infection model: BAL cytokine ELISA. Conditions: vancomycin or D-pleurocidin-KR i.v., 48 h. The class given is in vivo, C57Bl6J mice.
The subject of data set [4] is IL-6. The data set is described as above. It is filed as in vivo, C57Bl6J mice. The settings on record: 600 mg/kg vancomycin or D-pleurocidin-KR (also lowest dose 0.15 mg/kg) i.v., 48 h.
Data set [5] concerns HeLa. It is filed as cell-based. The settings on record: XTT, 24 h with peptide, OD475; Eagle's Minimum Essential Media, 10% FBS; average and standard error of three biological replicates. Here is the method:
(§1) HeLa and HEK293 cell lines were purchased from ECACC and cultured in Eagle’s Minimum Essential Media containing glutamine, supplemented with 10% FBS and 1X non-essential amino acids. A549 and Calu-3 cell lines were purchased from ATCC. […] Cytotoxicity was measured by incubating starter cultures of cells for 24 h in a 96 well plate, gently removing the supernatant and replacing it with dilutions of peptides and controls, incubating for a further 24 h and then staining of the cells with the second-generation tetrazolium dye, XTT.

Data set [6] concerns Calu-3. It is filed as cell-based. The settings on record: XTT, 24 h with peptide, OD475; DMEM/F-12, 10% FBS; average and standard error of three biological replicates. Here is the method:
as §1

Data set [7] deals with A549. It is filed as cell-based. The settings on record: XTT, 24 h with peptide, OD475; DMEM, 10% FBS; average and standard error of three biological replicates. On the procedure: as §1
For data set [8] the following is noted: in words.
The test system of data set [9] is EMR Staphylococcus aureus-15 NCTC 13616. The settings on record: RPMI supplemented with 5% FBS (value in parentheses); twofold broth microdilution, 20 h 37 C, OD600; modal MIC, at least three biological replicates. On the procedure: The antibacterial activity of the peptides was assessed through a modified twofold broth microdilution assay with modal MICs generated from at least three biological replicate experiments[20],[25]. The method broadly followed EUCAST methodology, with non-cation-adjusted Mueller Hinton or RPMI replacing cation-adjusted Mueller Hinton. Peptides and antibiotics were diluted in a twofold dilution in media down a 96 well plate. Bacteria were then added, back-diluted from an overnight culture, at a starting concentration of 5 × 10^5 CFU/ml. Plates were incubated, static at 37 C, for 20 h and the OD600 was determined using a Clariostar plate reader (BMG Labtech). […] Synergy was measured using standard microdilution checkerboard assays under the same conditions as the MICs[54]. Twofold dilution series of each peptide or antibiotic were prepared in separate 96 well plates and then combined into one before addition of bacteria. The growth/no growth interface was determined using the same definition as the MIC. The fractional inhibitory concentration was calculated from the most synergistic well on the plate for three independent repeats, and presented as the average +/− standard deviation. FIC is calculated as (MIC of compound A in combination with B/MIC of compound A alone) + (MIC of compound B in combination with A/MIC of compound B alone). MICs were determined on the same plates as the FICs to increase reproducibility.

Data set [10] deals with HEK293. It is filed as cell-based, human. Conditions: XTT, 24 h with peptide, OD475; Eagle's Minimum Essential Media, 10% FBS; average and standard error of three biological replicates. Here is the method: as §1
A short description of data set [11]: Maximum tolerated dose (MTD) study, i.v. It is filed as in vivo. Conditions: ICR mice. From the text:
SI Figures: Why are there 6 different Figure 3s with separate legends? Within the 4th - 6th Figure 3’s, what are the 4 different graphs for each of A, B, and C? […] Figure 16, 19 and 24 […]
have unreadable components due to overlap of text.
Each panel that constitutes “Secondary structure analysis of pleurocidin peptides from MD simulations” and, as such, is the same data but analysed in different ways. For this reason, we considered it appropriate to consider these all as one figure. However, to provide further clarity we have renumbered the supplementary figures and added further detail to the legends. The DISICL analysis is presented with a separate panel for each peptide. This has been clarified in the figure legend.
The overlap in the metabolite annotation in Volcano plots is a challenge for those metabolites that do not change much or where there is low significance as they all cluster in the same place. Since they are below the significance threshold, we have elected to remove these labels. […]
unethical to perform dose-ranging experiments to confirm this. Instead our experimental design was […]
As mentioned above however, we […]
systemic delivery of AMPs will never be possible due to insufficient therapeutic index. There is a marginal therapeutic index provided based on mammalian cell toxicity (up to 12-fold), but many existing in vitro studies of AMPs have shown greater selectivity. […]

On to `CC(C)C[C@@H](NC(=O)[C@@H](Cc1ccc(O)cc1)NC(=O)[C@@H](Cc1c[nH]cn1)NC(=O)[C@H](NC(=O)[C@@H](CC(C)C)NC(=O)[C@@H](C)NC(=O)[C@@H](C)NC(=O)[C@@H](CCCNC(=N)N)NC(=O)CNC(=O)[C@H](NC(=O)[C@@H](Cc1c[nH]cn1)NC(=O)[C@@H](CCCNC(=N)N)NC(=O)CNC(=O)[C@H](NC(=O)[C@@H](Cc1c[nH]cn1)NC(=O)[C@@H](C)NC(=O)[C@@H](C)NC(=O)[C@@H](CCCNC(=N)N)NC(=O)[C@@H](CCCNC(=N)N)NC(=O)[C@@H](Cc1ccccc1)NC(=O)[C@@H](Cc1ccccc1)NC(=O)[C@@H](CO)NC(=O)CNC(=O)[C@@H](Cc1c[nH]c2ccccc12)NC(=O)CN)C(C)C)C(C)C)[C@H](C)O)C(N)=O` [D-pleurocidin-KR] (H-G[dW]G[dS][dF][dF][dR][dR][dA][dA][dH][dV]G[dR][dH][dV]G[dR][dA][dA][dL][dT][dH][dY][dL]-NH2; N-terminus assumed), for which the “haemolysis at the highest concentration tested 400 µg/ml” value in data set [1] is given as 50%. Besides, in data set [1] (three biological replicates), the “concentration at which 10% haemolysis is achieved” value was “above 64 µg/ml and ~ 75 µg/ml”. For the same molecule, the “weight loss over the 48-h infection period” value in [2] (cumulative 15 or 1.5 mg/kg/48 h D-pleurocidin-KR, 600 mg/kg vancomycin, i.v.) is listed as “mitigates this weight loss”; in data set [2] (lowest dose of 0.15 mg/kg D-pleurocidin-KR i.v.) it was “no observable effect”. In addition, the “levels of MCP-1 in BAL” value in data set [3] is “No effects”. Also, the “IL-6 in BAL” value in data set [4] is recorded as “reduced”. Besides, the “Toxicity HeLa (EC50 / IC50)” value in data set [5] was “(25.3 ± 2.2) µg/ml”. Further, in data set [6], the “Toxicity Calu-3 (EC50 / IC50)” value is “(39.1 ± 1.8) µg/ml”. Also, the “Toxicity A549 (EC50 / IC50)” value in data set [7] is “(56.5 ± 4.5) µg/ml”. Further, the “solubility in aqueous media” value in data set [8] is “readily soluble”. Further, in [9], the “MIC, peptide concentration” value came to 0.5 µg/mL. For the same molecule, the “Toxicity HEK293 (EC50 / IC50)” value in data set [10] is reported as “(36.4 ± 4.3) µg/ml”. Moreover, the “dose tolerated when administered i.v.” value in data set [11] was 15 mg/kg/24 h.
